Target: T1, human recombinant PDE5 (Homo sapiens, UniProt O76074)
T1 construct: host or cells: Saccharomyces cerevisiae, protease-deficient strain BJ2-54 (ATCC 74465)
Experiment: cGMP-PDE one-step inhibition assay, human recombinant PDE5
Assay type: biochemical
Conditions: 0.15 μM 8-[H3]-cGMP, 30 min incubation
Experimental: The compounds of structural formula (I) were tested for an ability to inhibit PDE5. The ability of a compound to inhibit PDE5 activity is related to the IC50 value for the compound, i.e., the concentration of inhibitor required for 50% inhibition of enzyme activity. The IC50 value for compounds of structural formula (I) were determined using recombinant human PDE5.
The production of recombinant human PDEs and the IC50 determinations can be accomplished by well-known methods in the art. Exemplary methods are described as follows:
Recombinant production of human PDE1B, PDE2, PDE4A, PDE4B, PDE4C, PDE4D, PDE5, and PDE7 was carried out similarly to that described in Example 7 of U.S. Pat. No. 5,702,936, incorporated herein by reference, except that the yeast transformation vector employed, which is derived from the basic ADH2 plasmid described in Price et al., Methods in Enzymology, 185, pp. 308-318 (1990), incorporated yeast ADH2 promoter and terminator sequences and the Saccharomyces cerevisiae host was the protease-deficient strain BJ2-54 deposited on Aug. 31, 1998 with the American Type Culture Collection, Manassas, Va., under accession number ATCC 74465. Transformed host cells were grown in 2×SC-leu medium, pH 6.2, with trace metals, and vitamins. After 24 hours, YEP medium-containing glycerol was added to a final concentration of 2×YET/3% glycerol. Approximately 24 hr later, cells were harvested, washed, and stored at −70° C. […]
Cell pellets (29 g) were thawed on ice with an equal volume of Lysis Buffer (25 mM Tris HCl, pH 8, 5 mM MgCl2, 0.25 mM DTT, 1 mM benzamidine, and 10 μM ZnSO4). Cells were lysed in a Microfluidizer® (Microfluidics Corp.) using nitrogen at 20,000 psi. The lysate was centrifuged and filtered through 0.45 μm disposable filters. The filtrate was applied to a 150 mL column of Q SEPHAROSE® Fast-Flow (Pharmacia). The column was washed with 1.5 volumes of Buffer A (20 mM Bis-Tris Propane, pH 6.8, 1 mM MgCl2, 0.25 mM DTT, 10 μM ZnSO4) and eluted with a step gradient of 125 mM NaCl in Buffer A followed by a linear gradient of 125-1000 mM NaCl in Buffer A. Active fractions from the linear gradient were applied to a 180 mL hydroxyapatite column in Buffer B (20 mM Bis-Tris Propane (pH 6.8), 1 mM MgCl2, 0.25 mM DTT, 10 μM ZnSO4, and 250 mM KCl). After loading, the column was washed with 2 volumes of Buffer B and eluted with a linear gradient of 0-125 mM potassium phosphate in Buffer B. Active fractions were pooled, precipitated with 60% ammonium sulfate, and resuspended in Buffer C (20 mM Bis-Tris Propane, pH 6.8, 125 mM NaCl, 0.5 mM DTT, and 10 μM ZnSO4). The pool was applied to a 140 mL column of […]® S-300 HR and eluted with Buffer C. Active fractions were diluted to 50% glycerol and stored at −20° C.
cGMP-PDE activity of compounds of the present invention was measured using a one-step assay adapted from Wells et al., Biochim. Biophys. Acta, 384, 430 (1975). The reaction medium contained 50 mM Tris-HCl, pH 7.5, 5 mM magnesium acetate, 250 μg/ml 5′-Nucleotidase, 1 mM EGTA, and 0.15 μM 8-[H^3]-cGMP. Unless otherwise indicated, the enzyme used was a human recombinant PDE5 (ICOS Corp., Bothell, Wash.).
Compounds of the invention were dissolved in DMSO finally present at 2% in the assay.

Structure (SMILES)	IC50 [nM]
O=C1[C@H]2Cc3c([nH]c4ccccc34)[C@@H](c3ccc4c(c3)OCO4)N2C(=O)CN1CCCn1ccnc1 [Example 32]	10
CN1CCN(CCN2CC(=O)N3[C@H](c4ccc5c(c4)OCO5)c4[nH]c5ccccc5c4C[C@@H]3C2=O)CC1 [Example 46]	50
CON1CC(=O)N2[C@H](c3ccc4c(c3)OCO4)c3[nH]c4ccccc4c3C[C@@H]2C1=O [Example 3, (6R,12aR)-6-Benzo[1,3]dioxol-5-yl-2-methoxy-2,3,6,7,12,12a-hexahydropyrazino[1′,2′:1,6]-pyrido[3,4-b]indole-1,4-dione]	2.5
CCCCN(C)C(=O)CCCN1CC(=O)N2[C@H](c3ccc4c(c3)OCO4)c3[nH]c4ccccc4c3C[C@@H]2C1=O [Example 34]	10
O=C(CN1CC(=O)N2[C@H](c3ccc4c(c3)OCO4)c3[nH]c4ccccc4c3C[C@@H]2C1=O)N1CCN(c2ccccc2)CC1 [Example 42]	140
O=C(CN1CC(=O)N2[C@H](c3ccc4c(c3)OCO4)c3[nH]c4ccccc4c3C[C@@H]2C1=O)NCc1ccccc1 [Example 30]	20
CNc1cc(CN2CC(=O)N3[C@H](c4ccc5c(c4)OCO5)c4[nH]c5ccccc5c4C[C@@H]3C2=O)cc([N+](=O)[O-])c1 [Example 83]	40
CCOCCCN1CC(=O)N2[C@H](c3ccc4c(c3)OCO4)c3[nH]c4ccccc4c3C[C@@H]2C1=O [Example 39]	30
COCCN1CC(=O)N2[C@H](c3ccc4c(c3)OCO4)c3[nH]c4ccccc4c3C[C@@H]2C1=O [Example 29]	5.9
CC(C)(C)OC(=O)CN1CC(=O)N2[C@H](c3ccc4c(c3)OCO4)c3[nH]c4ccccc4c3C[C@@H]2C1=O [Example 86]	70
COC(=O)CN1CC(=O)N2[C@H](c3ccc4c(c3)OCO4)c3[nH]c4ccccc4c3C[C@@H]2C1=O [Example 87]	20
CC(=O)NCCN1CC(=O)N2[C@H](c3ccc4c(c3)OCO4)c3[nH]c4ccccc4c3C[C@@H]2C1=O [Example 26]	10
O=C1[C@H]2Cc3c([nH]c4ccccc34)[C@@H](c3ccc4c(c3)OCO4)N2C(=O)CN1Cc1cccc(NS(=O)(=O)C(F)(F)F)c1 [Example 77]	1.7
O=C(CN1CC(=O)N2[C@H](c3ccc4c(c3)OCO4)c3[nH]c4ccccc4c3C[C@@H]2C1=O)OCc1ccccc1 [Example 68]	40
CN(C)CCOc1ccc(CN2CC(=O)N3[C@H](c4ccc5c(c4)OCO5)c4[nH]c5ccccc5c4C[C@@H]3C2=O)cc1 [Example 81]	290
CCCCCCCCOC(=O)CN1CC(=O)N2[C@H](c3ccc4c(c3)OCO4)c3[nH]c4ccccc4c3C[C@@H]2C1=O [Example 88]	110
O=C1CCCN1CCCN1CC(=O)N2[C@H](c3ccc4c(c3)OCO4)c3[nH]c4ccccc4c3C[C@@H]2C1=O [Example 27]	5.4
Nc1ccc(CCN2CC(=O)N3[C@H](c4ccc5c(c4)OCO5)c4[nH]c5ccccc5c4C[C@@H]3C2=O)cc1 [Example 66]	40
O=C(CN1CC(=O)N2[C@H](c3ccc4c(c3)OCO4)c3[nH]c4ccccc4c3C[C@@H]2C1=O)Nc1ccncc1 [Example 38]	3.9
COC(=O)c1ccc(CN2CC(=O)N3[C@H](c4ccc5c(c4)OCO5)c4[nH]c5ccccc5c4C[C@@H]3C2=O)cc1 [Example 62]	20
O=C(CCN1CC(=O)N2[C@H](c3ccc4c(c3)OCO4)c3[nH]c4ccccc4c3C[C@@H]2C1=O)NC1CCCCC1 [Example 33]	10
NS(=O)(=O)c1ccc(CCN2CC(=O)N3[C@H](c4ccc5c(c4)OCO5)c4[nH]c5ccccc5c4C[C@@H]3C2=O)cc1 [Example 1, (6R-trans)-6-(1,3-Benzodioxol-5-yl)-2,3,6,7,12,12a-hexahydro-2-[2-(4-phenylsulfamoyl)-ethyl]pyrazino[1′,2′:1,6]pyrido[3,4-b]indole-1,4-dione]	1.4
O=C1C2Cc3c([nH]c4ccccc34)C(c3ccc4c(c3)OCO4)N2C(=O)CN1CCn1cncn1 (stereo not drawn) [Example 82]	30

Structure (SMILES)	IC50 [nM]
NS(=O)(=O)c1ccc(CN2CC(=O)N3[C@H](c4ccc5c(c4)OCO5)c4[nH]c5ccccc5c4C[C@@H]3C2=O)cc1 [Example 58]	20
CC1C(=O)N2[C@H](c3ccc4c(c3)OCO4)c3[nH]c4ccccc4c3C[C@@H]2C(=O)N1CCN(C)C (stereo partly drawn) [Example 8]	130
O=C(O)CCN1CC(=O)N2[C@H](c3ccc4c(c3)OCO4)c3[nH]c4ccccc4c3C[C@@H]2C1=O [Example 36]	50
O=C1[C@H]2Cc3c([nH]c4ccccc34)[C@@H](c3ccc4c(c3)OCO4)N2C(=O)CN1CCc1cnc[nH]1 [Example 64]	20
N#Cc1ccc(CN2CC(=O)N3[C@H](c4ccc5c(c4)OCO5)c4[nH]c5ccccc5c4C[C@@H]3C2=O)cc1 [Example 59]	70
Cn1cnc2cc(CN3CC(=O)N4[C@H](c5ccc6c(c5)OCO6)c5[nH]c6ccccc6c5C[C@@H]4C3=O)ccc21 [Example 85]	20
O=C(O)CN1CC(=O)N2[C@H](c3ccc4c(c3)OCO4)c3[nH]c4ccccc4c3C[C@@H]2C1=O [Example 69]	20
O=C(CN1CC(=O)N2[C@H](c3ccc4c(c3)OCO4)c3[nH]c4ccccc4c3C[C@@H]2C1=O)Nc1ccccc1 [Example 28]	3.9
O=C1[C@H]2Cc3c([nH]c4ccccc34)[C@@H](c3ccc4c(c3)OCO4)N2C(=O)CN1CCCn1cccn1 [Example 79]	6.3
O=C(CCCN1CC(=O)N2[C@H](c3ccc4c(c3)OCO4)c3[nH]c4ccccc4c3C[C@@H]2C1=O)NC1CCCCC1 [Example 35]	4.3
CN(C(=O)CN1CC(=O)N2[C@H](c3ccc4c(c3)OCO4)c3[nH]c4ccccc4c3C[C@@H]2C1=O)c1ccccc1 [Example 43]	100
COCCCN1CC(=O)N2[C@H](c3ccc4c(c3)OCO4)c3[nH]c4ccccc4c3C[C@@H]2C1=O [Example 25]	10
CCOC(=O)CCN1CC(=O)N2[C@H](c3ccc4c(c3)OCO4)c3[nH]c4ccccc4c3C[C@@H]2C1=O [Example 24]	9.6
O=C1[C@H]2Cc3c([nH]c4ccccc34)[C@@H](c3ccc4c(c3)OCO4)N2C(=O)CN1Cc1ccc(NS(=O)(=O)C(F)(F)F)cc1 [Example 57]	5.1
O=C(O)CCN1CC(=O)N2[C@H](c3ccc4c(c3)OCO4)c3[nH]c4ccccc4c3C[C@@H]2C1=O [Example 72]	2.3
O=C1[C@H]2Cc3c([nH]c4ccccc34)[C@@H](c3ccc4c(c3)OCO4)N2C(=O)CN1CCCN1CCOCC1 [Example 18]	40
NS(=O)(=O)c1ccc(CCN2CC(=O)N3[C@H](c4ccc5c(c4)OCO5)c4[nH]c5ccccc5c4C[C@@H]3C2=O)cc1 [Example 67]	6.2
O=C(CN1CC(=O)N2[C@H](c3ccc4c(c3)OCO4)c3[nH]c4ccccc4c3C[C@@H]2C1=O)N1CCCCC1 [Example 31]	20
N#CCN1CC(=O)N2[C@H](c3ccc4c(c3)OCO4)c3[nH]c4ccccc4c3C[C@@H]2C1=O [Example 60]	10
CN1CCN(NC(=O)CN2CC(=O)N3[C@H](c4ccc5c(c4)OCO5)c4[nH]c5ccccc5c4C[C@@H]3C2=O)CC1 [Example 84]	120
NN1CC(=O)N2[C@H](c3ccc4c(c3)OCO4)c3[nH]c4ccccc4c3C[C@@H]2C1=O [Example 4, (6R,12aR)-2-Amino-6-benzo[1,3]dioxo-5-yl-2,3,6,7,12,12a-hexahydropyrazino[1′, 2′:1,6]-pyrido[3,4-b]indole-1,4-dione]	1.8
O=C(O)c1ccc(CN2CC(=O)N3[C@H](c4ccc5c(c4)OCO5)c4[nH]c5ccccc5c4C[C@@H]3C2=O)cc1 [Example 47]	4.3
